In ChEMBL document CHEMBL4699609, “Synthesis and biological activities of simplified aplysiatoxin analogs focused on the CH/π interaction” (Bioorg Med Chem Lett, 2020):
The source made the active and inactive calls. The rule behind the calls is not given here.

Experiments:
[1] = Induction of inflammation in ICR mouse assessed as increase in relative weight of each ear at 170 nmol measured after 24 hrs; assay type: tissue-based
[2] = tested on: Ear; assay: Proinflammatory activity in ICR mouse assessed as increase in relative weight of each ear at 17 nmol measured after 24 hrs; assay type: functional, tissue-based
[3] = tested on: MKN-45; assay: Antiproliferative activity against human MKN-45 cells assessed as cell growth inhibition after 48 hrs by sulforhodamine B assay; assay type: functional
[4] = tested on: A549; assay: Antiproliferative activity against human A549 cells assessed as cell growth inhibition after 48 hrs by sulforhodamine B assay; assay type: functional
[5] = Antiproliferative activity against human HBC-4 cells assessed as cell growth inhibition after 48 hrs by sulforhodamine B assay; assay type: functional; settings: HBC4
[6] = tested on: NCI-H460; assay: Antiproliferative activity against human NCI-H460 cells assessed as cell growth inhibition after 48 hrs by sulforhodamine B assay; assay type: functional
[7] = tested on: SF-295; assay: Antiproliferative activity against human SF-295 cells assessed as cell growth inhibition after 48 hrs by sulforhodamine B assay; assay type: functional
[8] = tested on: HCC 2998; assay: Antiproliferative activity against human HCC 2998 cells assessed as cell growth inhibition after 48 hrs by sulforhodamine B assay; assay type: functional
[9] = tested on: MDA-MB-231; assay: Antiproliferative activity against human MDA-MB-231 cells assessed as cell growth inhibition after 48 hrs by sulforhodamine B assay; assay type: functional
[10] = tested on: St-4; assay: Antiproliferative activity against human St-4 cells assessed as cell growth inhibition after 48 hrs by sulforhodamine B assay; assay type: functional
[11] = tested on: LOX IMVI; assay: Antiproliferative activity against human LOX IMVI cells assessed as cell growth inhibition after 48 hrs by sulforhodamine B assay; assay type: functional
[12] = target: Protein kinase C delta type (Mus musculus, UniProt P28867); assay: Displacement of [3H]-PDBu from PKCdelta C1B domain in CD-1 mouse brain cytosol; assay type: subcellular
[13] = target: Protein kinase C alpha type (Mus musculus, UniProt P20444); assay: Displacement of [3H]-PDBu from PKCalpha C1A domain in CD-1 mouse brain cytosol; assay type: subcellular

Sequence of Protein kinase C delta type (P28867 whole entry, the tested form may be a part): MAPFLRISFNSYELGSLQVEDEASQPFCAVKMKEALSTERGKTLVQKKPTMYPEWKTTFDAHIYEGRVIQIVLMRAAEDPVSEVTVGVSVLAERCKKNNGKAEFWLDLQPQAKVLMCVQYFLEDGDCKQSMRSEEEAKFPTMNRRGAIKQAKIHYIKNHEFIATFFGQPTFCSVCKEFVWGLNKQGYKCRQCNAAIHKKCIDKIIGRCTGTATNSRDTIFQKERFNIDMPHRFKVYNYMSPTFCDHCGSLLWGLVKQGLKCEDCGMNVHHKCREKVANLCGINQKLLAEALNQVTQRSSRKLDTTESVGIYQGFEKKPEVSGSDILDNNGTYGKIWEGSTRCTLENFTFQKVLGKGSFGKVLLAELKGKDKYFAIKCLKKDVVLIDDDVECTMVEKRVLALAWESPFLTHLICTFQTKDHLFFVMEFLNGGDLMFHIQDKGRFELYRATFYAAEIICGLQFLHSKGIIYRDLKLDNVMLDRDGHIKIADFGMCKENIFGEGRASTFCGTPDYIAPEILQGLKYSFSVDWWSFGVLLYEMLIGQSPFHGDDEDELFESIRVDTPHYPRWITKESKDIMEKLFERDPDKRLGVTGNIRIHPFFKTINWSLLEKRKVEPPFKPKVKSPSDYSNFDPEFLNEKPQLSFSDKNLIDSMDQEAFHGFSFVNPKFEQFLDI

SMILES | Activity [1] | Activity [2] | GI50 [3] | GI50 [4] | GI50 [5] | GI50 [6] | GI50 [7] | GI50 [8] | GI50 [9] | GI50 [10] | GI50 [11] | Ki [12] | Ki [13]
C[C@H]1[C@@H]2C[C@@]3(O[C@H](CCC3(C)C)CC(=O)O[C@@H](CO)CC(=O)O2)O[C@@H]1CCCCc1cccc(O)c1 | Toxic |  |  |  |  |  |  |  |  |  |  |  | 
C[C@H]1[C@@H]2C[C@@]3(O[C@H](CCC3(C)C)CC(=O)O[C@@H](CO)CC(=O)O2)O[C@@H]1CCCCc1cccc2cc(OCc3ccccc3)ccc12 |  | Active | 195 nM | 692 nM | 63.1 nM | 115 nM | 871 nM | 398 nM | 537 nM | 52.5 nM | 182 nM | 0.74 nM | 7.6 nM
C[C@H]1[C@@H]2C[C@@]3(O[C@H](CCC3(C)C)CC(=O)O[C@@H](CO)CC(=O)O2)O[C@@H]1CCCCc1cccc2cc(O)ccc12 | Toxic |  | 479 nM | 759 nM | 91.2 nM | 162 nM | 955 nM | 501 nM | 891 nM | 240 nM | 447 nM | 0.98 nM | 6.4 nM
